Results from ChEMBL document CHEMBL1201862, “PubChem BioAssay data set” (2004).
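Grown in 96-well plates, cells were treated for 48 hours with each compound at five concentrations. Insufficient inhibition: endpoint recorded as highest concentration tested. GI50 = concentration required for 50% inhibition of growth.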 Calls of active or inactive are those of the source. No stated cut-off is given here; in the data, active = GI50 up to about 1.1 µM and inactive = higher.

What was measured:
Assay in all cases: growth of human tumour cells (NCI), 48 h
786-0 = test system: 786-0
A498 = test system: A498
A549 = test system: A549
ACHN = test system: ACHN
BT-549 = test system: BT-549
CAKI-1 = test system: CAKI-1
CCRF-CEM = test system: CCRF-CEM
COLO 205 = test system: COLO 205
DU-145 = test system: DU-145
EKVX = test system: EKVX
HCC 2998 = test system: HCC 2998
HCT-116 = test system: HCT-116
HCT-15 = test system: HCT-15
HL-60 = test system: HL-60
HOP-62 = test system: HOP-62
HOP-92 = test system: HOP-92
HT-29 = test system: HT-29
Hs-578T = test system: Hs-578T
IGROV-1 = test system: IGROV-1
K562 = test system: K562
KM12 = test system: KM12
LOX IMVI = test system: LOX IMVI
M14 = test system: M14
MCF7 = test system: MCF7
MDA-MB-231 = test system: MDA-MB-231
MDA-MB-435 = test system: MDA-MB-435
MDA-N = test system: MDA-N
MOLT-4 = test system: MOLT-4
Malme-3M = test system: Malme-3M
NCI-H226 = test system: NCI-H226
NCI-H23 = test system: NCI-H23
NCI-H460 = test system: NCI-H460
NCI-H522 = test system: NCI-H522
NCI/ADR-RES = test system: NCI/ADR-RES
OVCAR-3 = test system: OVCAR-3
OVCAR-4 = test system: OVCAR-4
OVCAR-5 = test system: OVCAR-5
OVCAR-8 = test system: OVCAR-8
PC-3 = test system: PC-3
RPMI-8226 = test system: RPMI-8226
RXF 393 = test system: RXF 393
SF-268 = test system: SF-268
SF-295 = test system: SF-295
SF-539 = test system: SF-539
SK-MEL-28 = test system: SK-MEL-28
SK-MEL-2 = test system: SK-MEL-2
SK-MEL-5 = test system: SK-MEL-5
SK-OV-3 = test system: SK-OV-3
SN12C = test system: SN12C
SNB-19 = test system: SNB-19
SNB-75 = test system: SNB-75
SR = test system: SR
SW-620 = test system: SW-620
T47D = test system: T47D
TK-10 = test system: TK-10
U-251 = test system: U-251
UACC-257 = test system: UACC-257
UACC-62 = test system: UACC-62
UO-31 = test system: UO-31

Compound: COc1ccc2c(c1)/C(=C\c1c(Cl)[nH]c3cc(C)c(OC)cc13)C(=O)N2
- GI50 (786-0): 1.19 µM (inactive)
- GI50 (A498): 0.83 µM (active)
- GI50 (A549): 1.19 µM (inactive)
- GI50 (ACHN): 1.05 µM (active)
- GI50 (BT-549): 0.679 µM (active)
- GI50 (CAKI-1): 1.46 µM (inactive)
- GI50 (CCRF-CEM): 0.726 µM (active)
- GI50 (COLO 205): 1.03 µM (active)
- GI50 (DU-145): 1.66 µM (inactive)
- GI50 (EKVX): 2.1 µM (inactive)
- GI50 (HCC 2998): 1.64 µM (inactive)
- GI50 (HCT-116): 0.979 µM (active)
- GI50 (HCT-15): 0.467 µM
- GI50 (HL-60): 0.435 µM (active)
- GI50 (HOP-62): 4.44 µM (inactive)
- GI50 (HOP-92): 2.14 µM (inactive)
- GI50 (HT-29): 0.889 µM (active)
- GI50 (Hs-578T): 0.667 µM (active)
- GI50 (IGROV-1): 0.467 µM (active)
- GI50 (K562): 0.522 µM (active)
- GI50 (KM12): 0.467 µM (active)
- GI50 (LOX IMVI): 0.753 µM (active)
- GI50 (M14): 0.698 µM (active)
- GI50 (MCF7): 0.41 µM (active)
- GI50 (MDA-MB-231): 2.93 µM (inactive)
- GI50 (MDA-MB-435): 0.198 µM (active)
- GI50 (MDA-N): 0.23 µM (active)
- GI50 (MOLT-4): 0.893 µM (active)
- GI50 (Malme-3M): 1.28 µM (inactive)
- GI50 (NCI-H226): 6.04 µM (inactive)
- GI50 (NCI-H23): 0.593 µM (active)
- GI50 (NCI-H460): 0.76 µM (active)
- GI50 (NCI-H522): 1.19 µM (inactive)
- GI50 (NCI/ADR-RES): 0.811 µM (active)
- GI50 (OVCAR-3): 0.347 µM (active)
- GI50 (OVCAR-4): 1.45 µM (inactive)
- GI50 (OVCAR-5): 2.55 µM (inactive)
- GI50 (OVCAR-8): 1.96 µM (inactive)
- GI50 (PC-3): 0.807 µM (active)
- GI50 (RPMI-8226): 0.942 µM (active)
- GI50 (RXF 393): 0.891 µM (active)
- GI50 (SF-268): 0.986 µM (active)
- GI50 (SF-295): 0.396 µM (active)
- GI50 (SF-539): 0.266 µM (active)
- GI50 (SK-MEL-28): 10.6 µM (inactive)
- GI50 (SK-MEL-2): 0.713 µM (active)
- GI50 (SK-MEL-5): 0.69 µM (active)
- GI50 (SK-OV-3): 0.423 µM (active)
- GI50 (SN12C): 2.09 µM (inactive)
- GI50 (SNB-19): 1.39 µM (inactive)
- GI50 (SNB-75): 0.984 µM (active)
- GI50 (SR): 0.357 µM (active)
- GI50 (SW-620): 1.22 µM (inactive)
- GI50 (T47D): 12.9 µM (inactive)
- GI50 (TK-10): 1.64 µM (inactive)
- GI50 (U-251): 0.653 µM (active)
- GI50 (UACC-257): 2.63 µM (inactive)
- GI50 (UACC-62): 0.434 µM (active)
- GI50 (UO-31): 3.13 µM (inactive)

Compound: COc1cc(NCc2ccc3n2-c2ccccc2OC3)cc(OC)c1OC
- GI50 (786-0): 47.1 µM (inactive)
- GI50 (A498): 13.5 µM (inactive)
- GI50 (A549): 17.6 µM (inactive)
- GI50 (ACHN): 30.1 µM (inactive)
- GI50 (BT-549): 24.2 µM (inactive)
- GI50 (CAKI-1): 27 µM (inactive)
- GI50 (CCRF-CEM): 12.6 µM (inactive)
- GI50 (COLO 205): 12.9 µM (inactive)
- GI50 (DU-145): 72.1 µM (inactive)
- GI50 (EKVX): 9.71 µM (inactive)
- GI50 (HCC 2998): 16.1 µM (inactive)
- GI50 (HCT-116): 27.8 µM (inactive)
- GI50 (HCT-15): 29.9 µM
- GI50 (HL-60): 17.7 µM (inactive)
- GI50 (HOP-62): 43.5 µM (inactive)
- GI50 (HOP-92): 11 µM (inactive)
- GI50 (HT-29): 35.5 µM (inactive)
- GI50 (Hs-578T): 35.4 µM (inactive)
- GI50 (IGROV-1): 14 µM (inactive)
- GI50 (K562): 8.36 µM (inactive)
- GI50 (KM12): 40.7 µM (inactive)
- GI50 (LOX IMVI): 10.4 µM (inactive)
- GI50 (M14): 31 µM (inactive)
- GI50 (MCF7): 14.1 µM (inactive)
- GI50 (MDA-MB-231): 14.4 µM (inactive)
- GI50 (MDA-MB-435): 14 µM (inactive)
- GI50 (MDA-N): 21.1 µM (inactive)
- GI50 (Malme-3M): 15.1 µM (inactive)
- GI50 (NCI-H226): 28.8 µM (inactive)
- GI50 (NCI-H23): 35.2 µM (inactive)
- GI50 (NCI-H460): 30.1 µM (inactive)
- GI50 (NCI-H522): 12.7 µM (inactive)
- GI50 (NCI/ADR-RES): 4.25 µM (inactive)
- GI50 (OVCAR-3): 28.6 µM (inactive)
- GI50 (OVCAR-4): 16.1 µM (inactive)
- GI50 (OVCAR-5): 46.5 µM (inactive)
- GI50 (OVCAR-8): 31 µM (inactive)
- GI50 (PC-3): 22.8 µM (inactive)
- GI50 (RPMI-8226): 7.89 µM (inactive)
- GI50 (RXF 393): 24.6 µM (inactive)
- GI50 (SF-268): 46.5 µM (inactive)
- GI50 (SF-295): 23.8 µM (inactive)
- GI50 (SK-MEL-28): 38.3 µM (inactive)
- GI50 (SK-MEL-2): 20 µM (inactive)
- GI50 (SK-MEL-5): 15.6 µM (inactive)
- GI50 (SN12C): 17.5 µM (inactive)
- GI50 (SNB-19): 69 µM (inactive)
- GI50 (SNB-75): 23.8 µM (inactive)
- GI50 (SR): 11.8 µM (inactive)
- GI50 (SW-620): 35.6 µM (inactive)
- GI50 (T47D): 37.2 µM (inactive)
- GI50 (TK-10): 32.5 µM (inactive)
- GI50 (U-251): 18.4 µM (inactive)
- GI50 (UACC-257): 20.1 µM (inactive)
- GI50 (UACC-62): 19 µM (inactive)
- GI50 (UO-31): 16.8 µM (inactive)
